# Structures can show the parent of a compound that is named as a salt.
# Molecular target: V1 receptor (Rattus norvegicus, UniProt P30560)
# Experiment: biochemical
# Type: binding
# Chain of V1 receptor (P30560 whole entry): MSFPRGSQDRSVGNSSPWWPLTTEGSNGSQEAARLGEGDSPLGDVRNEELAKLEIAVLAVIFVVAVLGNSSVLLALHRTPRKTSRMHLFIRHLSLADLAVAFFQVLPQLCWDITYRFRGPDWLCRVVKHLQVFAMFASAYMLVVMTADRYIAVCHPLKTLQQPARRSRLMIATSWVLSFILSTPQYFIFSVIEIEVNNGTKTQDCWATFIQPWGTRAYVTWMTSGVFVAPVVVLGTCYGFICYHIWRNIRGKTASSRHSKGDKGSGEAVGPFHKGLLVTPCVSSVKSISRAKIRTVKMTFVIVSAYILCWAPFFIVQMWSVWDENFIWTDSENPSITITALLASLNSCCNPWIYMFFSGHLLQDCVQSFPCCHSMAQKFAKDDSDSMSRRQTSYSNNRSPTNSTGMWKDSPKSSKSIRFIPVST
row,SMILES,IC50
1,"O=C(c1ccc(OCC2CO2)cc1)N1CCC(N2C(=O)CCc3ccccc32)CC1 (centres unmarked) [Example 101, 1-[1-(4-Glycidoxybenzoyl)-4-piperidinyl]-3,4-dihydrocarbostyril]",1600 nM
2,"O=C(c1ccccc1)c1ccc(C(=O)N2CCC(N3C(=O)CCc4ccccc43)CC2)cc1 [Example 72, 1-[1-(4-Benzoylbenzoyl)-4-piperidinyl]-3,4-dihydrocarbostyril]",480 nM
3,"COC(=O)[C@H](CO)NC(=O)CCCOc1ccc(C(=O)N2CCC(N3C(=O)CCc4ccccc43)CC2)cc1 [Example 10, Methyl N-[4-{4-[4-(1,2,3,4-tetrahydro-2-oxo-1-quinolyl)-1-piperidinylcarbonyl]phenoxy}]butanoyl-L-serinate]",320 nM
4,"O=C(CN1CCN(c2ccccc2)CC1)NCCCCCOc1ccc(C(=O)N2CCC(N3C(=O)CCc4ccccc43)CC2)cc1 [Example 255, 1-{1-(4-[5-(2-(4-Phenyl-1-piperazinyl)acetylamino)pentyloxy]benzoyl)-4-piperidinyl}-3,4-dihydrocarbostyril]",380 nM
5,"C=CCN(C)c1ccc(C(=O)N2CCC(N3C(=O)CCc4ccccc43)CC2)cc1 [Example 90, 1-{1-[4-(N-Allyl-N-methylamino)benzoyl]-4-piperidinyl)-3,4-dihydrocarbostyril]",1100 nM
6,"CNC(=O)NCCCOc1ccc(C(=O)N2CCC(N3C(=O)CCc4ccccc43)CC2)cc1 [Example 23, 1-[1-{4-[3-(3-Methylureido)propoxy]benzoyl}-4-piperidinyl]-3,4-dihydrocarbostyril]",240 nM
7,"CS(=O)(=O)Oc1ccc(C(=O)N2CCC(N3C(=O)CCc4ccccc43)CC2)cc1 [Example 100, 1-[1-(4-Methylsulfonyloxybenzoyl)-4-piperidinyl]-3,4-dihydrocarbostyril]",900 nM
8,"O=C(c1ccc(OCCCC(O)CN2CCCC2)cc1)N1CCC(N2C(=O)CCc3ccccc32)CC1 (centres unmarked) [Example 186, 1-{1-[4-(4-Hydroxy-5-(1-pyrrolidinyl)pentyloxy)benzoyl]-4-piperidinyl}-3,4-dihydrocarbostyril]",63 nM
9,"CN(CCc1ccccn1)CC(O)CCCCOc1ccc(C(=O)N2CCC(N3C(=O)CCc4ccccc43)CC2)cc1 (centres unmarked) [Example 300, 1-{1-(4-[5-Hydroxy-6-(N-methyl-N-(2-(2-pyridyl)ethyl)amino)hexyloxy]benzoyl]-4-piperidinyl}-3,4-dihydrocarbostyril]",34 nM
10,"O=C(c1ccc(OCCCCCSc2ccncc2)cc1)N1CCC(N2C(=O)CCc3ccccc32)CC1 [Example 283, 1-{1-(4-[5-(4-Pyridylthio)pentyloxy]benzoyl)-4-piperidinyl}-3,4-dihydrocarbostyril]",610 nM
11,"O=C1CCc2ccccc2N1C1CCN(C(=O)C23CC4CC(CC(C4)C2)C3)CC1 [Example 83, 1-(1-Tricyclo[3.3.1.1^3,7]decanylcarbonyl-4-piperidinyl)-3,4-dihydrocarbostyril]",500 nM
12,"O=C(CN1CCN(CCCOc2ccc(C(=O)N3CCC(N4C(=O)CCc5ccccc54)CC3)cc2)CC1)c1ccccc1 [Example 137, 1-[1-{4-[3-(4-Benzoylmethyl-1-piperazinyl)propoxy]benzoyl}-4-piperidinyl]-3,4-dihydrocarbostyril.dioxalate]",120 nM
13,"COc1ccc(C(=O)N2CCC(N3C(=O)CCc4ccccc43)CC2)c(OCCCC(N)=O)c1 [Example 67, 1-{1-[2-(3-Carbamoylpropoxy)-4-methoxybenzoyl]-4-piperidinyl}-3,4-dihydrocarbostyril]",470 nM
14,"N#CCCCOc1ccc(C(=O)N2CCC(N3C(=O)CCc4ccccc43)CC2)cc1 [Example 5, 1-{1-[4-(3-Cyanopropoxy)benzoyl]-4-piperidinyl}-3,4-dihydrocarbostyril]",490 nM
15,"N=C(N)CCCOc1ccc(C(=O)N2CCC(N3C(=O)CCc4ccccc43)CC2)cc1 [Example 6, 1-{1-[4-(3-Amidinopropoxy)benzoyl]-4-piperidinyl}-3,4-dihydrocarbostyril]",470 nM
16,"COc1ccc(N2CCN(CCCOc3ccc(C(=O)N4CCC(N5C(=O)CCc6ccccc65)CC4)cc3)CC2)cc1 [Example 86, 1-{1-[4-(3-[4-(4-Methoxyphenyl)-1-piperazinyl]propoxy)benzoyl]-4-piperidinyl)-3,4-dihydrocarbostyril]",570 nM
17,"CC(C)CCNCCCOc1ccc(C(=O)N2CCC(N3C(=O)CCc4ccccc43)CC2)cc1 [Example 167, 1-{1-[4-(3-Isopentylaminopropoxy)benzoyl]-4-piperidinyl}-3,4-dihydrocarbostyril]",280 nM
18,"NCC(O)CCCCOc1ccc(C(=O)N2CCC(N3C(=O)CCc4ccccc43)CC2)cc1 (centres unmarked) [Example 171, 1-{1-[4-(5-Hydroxy-6-aminohexyloxy)benzoyl]-4-piperidinyl}-3,4-dihydrocarbostyril]",240 nM
19,"Cn1ccnc1SCCCCCOc1ccc(C(=O)N2CCC(N3C(=O)CCc4ccccc43)CC2)cc1 [Example 278, 1-{1-(4-[5-(1-Methyl-2-imidazolylthio)pentyloxy]benzoyl)-4-piperidinyl}-3,4-dihydrocarbostyril]",110 nM

row,SMILES,IC50
1,"CNc1ccc(C(=O)N2CCC(N3C(=O)CCc4ccccc43)CC2)c(OC)c1 [Example 48, 1-[1-(2-Methoxy-4-methylaminobenzoyl)-4-piperidinyl]-3,4-dihydrocarbostyril]",400 nM
2,"O=C(c1ccc(OCCCCCNS(=O)(=O)c2ccc([N+](=O)[O-])cc2)cc1)N1CCC(N2C(=O)CCc3ccccc32)CC1 [Example 263, 1-{1-(4-[5-(4-Nitrophenylsulfonyl)aminopentyloxy]benzoyl)-4-piperidinyl}-3,4-dihydrocarbostyril]",360 nM
3,"O=C(c1ccc(OCCCCCS(=O)(=O)c2ncccn2)cc1)N1CCC(N2C(=O)CCc3ccccc32)CC1 [Example 281, 1-(1-(4-[5-(2-Pyrimidylsulfonyl)pentyloxy]benzoyl)-4-piperidinyl}-3,4-dihydrocarbostyril]",54 nM
4,"O=C(c1ccc(OCCCN2CCNCC2)cc1)N1CCC(N2C(=O)CCc3ccccc32)CC1 [Example 132, 1-[1-{4-[3-(1-piperazinyl)propoxy]benzoyl}-4-piperidinyl]-3,4-dihyrocarbostyril.dihydrochloride.trihydrate]",160 nM
5,"CCN(CC)CC(CCCCOc1ccc(C(=O)N2CCC(N3C(=O)CCc4ccccc43)CC2)cc1)OC(C)=O (centres unmarked) [Example 305, 1-{1-[4-(5-Acetoxy-6-diethylaminohexyloxy)benzoyl]-4-piperidinyl)-3,4-dihydrocarbostyril]",65 nM
6,O=C(NCCCCCOc1ccc(C(=O)N2CCC(N3C(=O)CCc4ccccc43)CC2)cc1)C1CCC(O)C(O)C1 (centres unmarked) [Example 260],150 nM
7,"O=C(O)C1CCN(C(=O)CCCCCOc2ccc(C(=O)N3CCC(N4C(=O)CCc5ccccc54)CC3)cc2)CC1 [Example 274, 1-{1-(4-[5-(4-Carboxy-1-piperidinylcabonyl)pentyloxy]benzoyl)-4-piperidinyl}-3,4-dihydrocarbostyril]",490 nM
8,"O=C(c1ccc(OCCCCCCN2CCCC2)cc1)N1CCC(N2C(=O)CCc3ccccc32)CC1 [Example 214, 1-{1-[4-(6-(1-Pyrrolidinyl)hexyloxy)benzoyl]-4-piperidinyl}-3,4-dihydrocarbostyril.]",58 nM
9,"CS(=O)(=O)NCCCOc1ccc(C(=O)N2CCC(N3C(=O)CCc4ccccc43)CC2)cc1 [Example 22, 1-{1-[4-(3-Methylsulfonylaminopropoxy)benzoyl]-4-piperidinyl}-3,4-dihydrocarbostyril]",340 nM
10,"O=C(c1ccc(OCCCCC(O)CN2CCN(c3ccccc3)CC2)cc1)N1CCC(N2C(=O)CCc3ccccc32)CC1 (centres unmarked) [Example 205, 1-{1-[4-(5-Hydroxy-6-(4-phenyl-1-piperazinyl)hexyloxy)benzoyl]-4-piperidinyl}-3,4-dihydrocarbostyril]",120 nM
11,"CN1CCN(CC(=O)NCCCCCOc2ccc(C(=O)N3CCC(N4C(=O)CCc5ccccc54)CC3)cc2)CC1 [Example 254, 1-{1-(4-[5-(2-(4-Methyl-1-piperazinyl)acetylamino)pentyloxy]benzoyl)-4-piperidinyl}-3,4-dihydrocarbostyril]",60 nM
12,"O=C(OCCCCOc1ccc(C(=O)N2CCC(N3C(=O)CCc4ccccc43)CC2)cc1)N1CCNCC1 [Example 163, 1-{1-[4-[4-(1-Piperazinyl)carbonyloxybutoxy]benzoyl]-4-piperidinyl}-3,4-dihydrocarbostyril]",75 nM
13,"CC(=O)OCCCCCOc1ccc(C(=O)N2CCC(N3C(=O)CCc4ccccc43)CC2)cc1 [Example 39, 1-{1-[4-(5-Acetoxypentyloxy)benzoyl]-4-piperidinyl}-3,4-dihydrocarbostyril]",150 nM
14,"CC1CCN(CCCCCOc2ccc(C(=O)N3CCC(N4C(=O)CCc5ccccc54)CC3)cc2)CC1 [Example 242, 1-{1-(4-[5-(4-Methyl-1-piperidinyl)pentyloxy]benzoyl)-4-piperidinyl}-3,4-dihydrocarbostyril]",59 nM
15,"CN(CCCCCCOc1ccc(C(=O)N2CCC(N3C(=O)CCc4ccccc43)CC2)cc1)CCc1ccccn1 [Example 266, 1-{1-(4-[6-(N-(2-(2-Pyridyl)ethyl)-N-methylamino)hexyloxy]benzoyl)-4-piperidinyl}-3,4-dihydrocarbostyril]",35 nM
16,"CCOc1ccc(C(=O)N2CCC(N3C(=O)CCc4c(O)cccc43)CC2)c(OC)c1 [Example 308, 5-Hydroxy-1-[1-(2-methoxy-4-ethoxybenzoyl)-4-piperidinyl}-3,4-dihydrocarbostyril]",95 nM
17,"O=C(N[C@@H](CO)C(=O)NCCCOc1ccc(C(=O)N2CCC(N3C(=O)CCc4ccccc43)CC2)cc1)OCc1ccccc1 [Example 226, 1-[1-{4-(3-(S)-{N-(Benzyloxycarbonyl)seryl}aminopropoxy]benzoyl)-4-piperidinyl]-3,4-dihydrocarbostyril]",480 nM
18,"COc1ccc(C(=O)N2CCC(N3C(=O)CCc4cc(F)ccc43)CC2)c(OC)c1 [Example 79, 6-Fluoro-1-[1-(2,4-dimethoxybenzoyl)-4-piperidinyl]-3,4-dihydrocarbostyril]",500 nM
19,"Nc1ccc(S(=O)(=O)NCCCCCOc2ccc(C(=O)N3CCC(N4C(=O)CCc5ccccc54)CC3)cc2)cc1 [Example 264, 1-{1-(4-[5-(4-Aminophenylsulfonyl)aminopentyloxy]benzoyl)-4-piperidinyl}-3,4-dihydrocarbostyril]",160 nM
